Test results taken from ChEMBL document CHEMBL3508693 (2016).

Assays:
CYP2C9 = CYP2C9 (Homo sapiens, UniProt P11712); test: Inhibitory activity of 20 uM SPP100 on 227 Pmoles of cDNA-derived CYP2C9 enzyme in microsome prepared from human lymphoblastoid cell line; format: ADME, microsomes; design: conc 20 uM, interact cpd conc 6 uM; conditions: probe diclofenac
CYP2C19 = CYP2C19 (Homo sapiens, UniProt P33261); test: Inhibitory activity of 20 uM SPP100 on 1174 Pmoles of cDNA-derived CYP2C19 enzyme in microsome prepared from human lymphoblastoid cell line; format: ADME, microsomes; design: conc 20 uM, interact cpd conc 50 uM; conditions: probe (S)-mephenytoin
Chain of CYP2C19 (P33261 whole entry): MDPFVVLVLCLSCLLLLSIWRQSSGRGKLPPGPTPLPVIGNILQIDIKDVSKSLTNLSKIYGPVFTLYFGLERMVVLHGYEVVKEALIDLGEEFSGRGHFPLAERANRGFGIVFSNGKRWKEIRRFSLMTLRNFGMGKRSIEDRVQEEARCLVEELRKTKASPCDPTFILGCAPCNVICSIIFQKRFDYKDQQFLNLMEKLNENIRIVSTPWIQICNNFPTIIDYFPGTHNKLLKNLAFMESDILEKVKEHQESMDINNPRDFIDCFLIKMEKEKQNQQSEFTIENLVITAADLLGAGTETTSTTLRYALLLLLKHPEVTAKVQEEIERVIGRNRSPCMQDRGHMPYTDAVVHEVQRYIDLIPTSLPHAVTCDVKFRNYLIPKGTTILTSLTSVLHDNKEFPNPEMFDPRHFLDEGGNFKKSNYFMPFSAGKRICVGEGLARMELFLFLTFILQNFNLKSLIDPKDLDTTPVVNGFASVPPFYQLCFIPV

CYP1A2 = biological target: T1, CYP1A2 (Homo sapiens, UniProt P05177); test: Inhibitory activity of 200 uM SPP100 on 484 Pmoles of cDNA-derived CYP1A2 enzyme in microsome prepared from human lymphoblastoid cell line; format: ADME, microsomes; design: conc 200 uM, interact cpd conc 50 uM; conditions: probe phenacetin
T1 sequence (P05177 whole entry): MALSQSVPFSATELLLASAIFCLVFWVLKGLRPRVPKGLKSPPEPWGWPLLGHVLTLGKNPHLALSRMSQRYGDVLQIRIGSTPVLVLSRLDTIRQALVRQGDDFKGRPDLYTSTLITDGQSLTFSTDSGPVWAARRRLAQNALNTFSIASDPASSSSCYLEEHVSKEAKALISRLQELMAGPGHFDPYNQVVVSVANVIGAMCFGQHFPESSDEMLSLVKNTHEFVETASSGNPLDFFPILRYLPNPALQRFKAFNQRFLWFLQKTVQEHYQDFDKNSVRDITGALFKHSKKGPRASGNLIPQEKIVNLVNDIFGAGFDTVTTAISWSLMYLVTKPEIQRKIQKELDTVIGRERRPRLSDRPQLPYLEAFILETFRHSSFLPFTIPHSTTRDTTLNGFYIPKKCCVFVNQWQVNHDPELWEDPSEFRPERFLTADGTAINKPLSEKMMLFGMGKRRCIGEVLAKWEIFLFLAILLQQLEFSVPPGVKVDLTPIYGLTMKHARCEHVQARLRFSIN

[1] = Total excretion of radioactivity following oral administration of [14C] aliskiren hemifumarate at 3 mg.Kg-1 level in marmoset; format: ADME, organism-based, Callithrix jacchus, Urine/Feces; conditions: in vivo
[2] = Mean excretion of radioactivity (0-72h) in urine and faeces following single intravenous dose of 10 mg.Kg-1 [14C] aliskiren hemifumarate in mouse; format: ADME, organism-based, TgRasH2, Urine/Feces; conditions: in vivo
[3] = Concentration of radioactivity in the colon wall following repeated oral administration of [14C] aliskiren hemifumarate at 100 mg.Kg-1 level studied at 24h after 3rd dose in rat; format: ADME, organism-based, Albino HAN:WIST; conditions: in vivo
[4] = Excretion (0-168h) of 14C-radioactivity in faeces following single oral dose of 300 mg [14C]SPP100 studied in healthy men; format: ADME, organism-based, Feces; conditions: human, in vivo, at 300 mg
[5] = Excretion of radioactivity (0-72h) in urine following single oral dose of 500 mg.Kg-1 [14C] aliskiren hemifumarate in mouse; format: ADME, organism-based, TgRasH2; conditions: in vivo
[6] = Excretion of radioactivity (24-48h) in faeces following single intravenous dose of 10 mg.Kg-1 [14C] aliskiren hemifumarate in rat; format: ADME, organism-based, Albino HAN:WIST, Feces; conditions: in vivo
[7] = Excretion of radioactivity (72-96h) in urine following single intravenous dose of 10 mg.Kg-1 [14C] aliskiren hemifumarate in rat; format: ADME, organism-based, Albino HAN:WIST; conditions: in vivo
[8] = Concentration of radioactivity in the colon wall following repeated oral administration of [14C] aliskiren hemifumarate at 100 mg.Kg-1 level studied at 2h after 7th dose in rat; format: ADME, organism-based, Albino HAN:WIST; conditions: in vivo
[9] = Excretion of radioactivity (72-96h) in faeces following single oral dose of 100 mg.Kg-1 [14C] aliskiren hemifumarate in rat; format: ADME, organism-based, Albino HAN:WIST, Feces; conditions: in vivo
[10] = Excretion of radioactivity (0-24h) in urine following single intravenous dose of 10 mg.Kg-1 [14C] aliskiren hemifumarate in mouse; format: ADME, organism-based, TgRasH2; conditions: in vivo
[11] = Mean excretion of radioactivity (0-24h) in urine and faeces following single oral dose of 100 mg.Kg-1 [14C] aliskiren hemifumarate in rat; format: ADME, organism-based, Albino HAN:WIST, Urine/Feces; conditions: in vivo
[12] = AUC/dose (0-96h) of total radioactivity following oral administration of [14C] aliskiren hemifumarate at 100 mg.Kg-1 level in rat; format: ADME, organism-based, Albino HAN:WIST, Plasma; conditions: in vivo
Cytochrome P450 4F2 = biological target: T2, Cytochrome P450 4F2 (Homo sapiens, UniProt P78329); test: Metabolic clearance (ul.min.nmol-1 CYP) of aliskiren hemifumarate for CYP4F2 was determined in human liver microsome incubated with [14C]SPP100 hemifumarate; format: ADME; conditions: microsomes
T2 sequence (P78329 whole entry): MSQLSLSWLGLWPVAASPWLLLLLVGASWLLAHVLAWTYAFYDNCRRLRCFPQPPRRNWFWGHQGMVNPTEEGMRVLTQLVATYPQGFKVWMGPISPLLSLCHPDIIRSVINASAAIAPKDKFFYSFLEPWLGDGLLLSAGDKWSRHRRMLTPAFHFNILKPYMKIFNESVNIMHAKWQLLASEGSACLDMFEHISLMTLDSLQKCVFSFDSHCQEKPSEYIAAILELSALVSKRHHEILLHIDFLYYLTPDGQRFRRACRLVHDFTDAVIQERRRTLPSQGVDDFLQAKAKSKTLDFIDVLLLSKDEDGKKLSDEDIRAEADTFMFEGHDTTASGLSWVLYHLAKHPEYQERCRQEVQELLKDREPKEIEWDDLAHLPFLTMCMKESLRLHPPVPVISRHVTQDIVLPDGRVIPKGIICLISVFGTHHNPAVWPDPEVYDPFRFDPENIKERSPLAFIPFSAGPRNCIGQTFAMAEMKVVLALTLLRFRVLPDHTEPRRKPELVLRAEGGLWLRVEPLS

[13] = AUC(0-24h) of aliskiren hemifumarate following 2 week oral dosing of aliskiren hemifumarate at 10 mg.Kg-1 level studied on […] in male Callithrix jacchus; format: ADME, organism-based; conditions: marmoset, plasma
[14] = Cmax of aliskiren hemifumarate following 4 week oral dietary dosing of aliskiren hemifumarate at 500 mg.Kg-1 level in male mouse; format: ADME, organism-based; conditions: CB6F1-TGrasH2, mouse, in vivo
[15] = AUC (0-24h)/dose of aliskiren hemifumarate following 4 week oral dietary dosing of aliskiren hemifumarate at 1500 mg.Kg-1 level in female mouse; format: ADME, organism-based, CB6F1-TGrasH2, Plasma; conditions: in vivo
[16] = Effect of 2 week oral dosing of aliskiren hemifumarate at 10 mg.Kg-1 level on blood urea nitrogen level in male Callithrix jacchus; format: toxicity, organism-based, Plasma; conditions: marmoset, 336 h
[17] = Tmax (0-168h) of unlabeled aliskiren hemifumarate following single oral administration of aliskiren hemifumarate at 3 mg.Kg-1 level in marmoset; format: ADME, organism-based, Callithrix jacchus; conditions: plasma
[18] = t1/2 of aliskiren hemifumarate following 2 week oral dosing of aliskiren hemifumarate at 50 mg.Kg-1 level studied on day 14 in female Callithrix jacchus; format: ADME, organism-based; conditions: marmoset, plasma
[19] = Cmax of unlabeled aliskiren hemifumarate following single oral dose of aliskiren hemifumarate at 500 mg.Kg-1 level in mouse; format: ADME, organism-based; conditions: TgRasH2, mouse, plasma
[20] = Cmax/dose of aliskiren hemifumarate following 4 week oral dietary dosing of aliskiren hemifumarate at 500 mg.Kg-1 level in female mouse; format: ADME, organism-based, CB6F1-TGrasH2; conditions: in vivo, 672 h
[21] = Absolute oral bioavailability of aliskiren hemifumarate after single oral administration of [14C] aliskiren hemifumarate in mouse; format: ADME, organism-based, TgRasH2, Plasma; conditions: in vivo, 500 mg/kg
[22] = AUC (0-24h) of aliskiren hemifumarate following 4 week oral dietary dosing of aliskiren hemifumarate at 500 mg.Kg-1 level in male mouse; format: ADME, organism-based; conditions: CB6F1-TGrasH2, mouse, plasma

Chain of CYP2C9 (P11712 whole entry): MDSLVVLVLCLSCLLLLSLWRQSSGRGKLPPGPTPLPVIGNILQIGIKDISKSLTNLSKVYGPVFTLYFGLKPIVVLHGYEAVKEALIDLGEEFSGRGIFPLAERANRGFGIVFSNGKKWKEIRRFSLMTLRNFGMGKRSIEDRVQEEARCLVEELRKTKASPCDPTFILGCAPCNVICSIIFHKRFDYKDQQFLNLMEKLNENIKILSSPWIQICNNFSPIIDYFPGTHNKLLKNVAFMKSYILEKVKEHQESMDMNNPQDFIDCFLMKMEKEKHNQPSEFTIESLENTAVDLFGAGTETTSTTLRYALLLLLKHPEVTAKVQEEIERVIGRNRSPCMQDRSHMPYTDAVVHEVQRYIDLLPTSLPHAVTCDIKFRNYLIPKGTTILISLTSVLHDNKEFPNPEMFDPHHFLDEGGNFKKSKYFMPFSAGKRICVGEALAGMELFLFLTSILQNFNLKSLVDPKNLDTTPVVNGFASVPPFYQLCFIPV

COCCCOc1cc(C[C@@H](C[C@H](N)[C@@H](O)C[C@H](C(=O)NCC(C)(C)C(N)=O)C(C)C)C(C)C)ccc1OC
inhibition at 20 µM (CYP2C9): 13.1% | inhibition at 20 µM (CYP2C19): -1.5% | inhibition at 200 µM (CYP1A2): 6%

COCCCOc1cc(C[C@@H](C[C@H](N)[C@@H](O)C[C@H](C(=O)NCC([14CH3])([14CH3])C(N)=O)C(C)C)C(C)C)ccc1OC.O=C(O)/C=C/C(=O)O
Radiolabel recovery [1]: 104% | Radiolabel recovery [2]: 93.08% | Radiolabel recovery [3]: OUTCOME = Observed, VALUE = Highest radioactivity concentration was observed | Radiolabel recovery [4]: 90.89% | Radiolabel recovery [5]: 1.84% | Radiolabel recovery [6]: 28.2% | Radiolabel recovery [7]: 2.5% | Radiolabel recovery [8]: OUTCOME = Observed, VALUE = Highest radioactivity concentration was observed | Radiolabel recovery [9]: 0.17% | Radiolabel recovery [10]: 69.49% | Radiolabel recovery [11]: 36.1% | AUC normalised [12]: 0.054 (umol.h/L)/(mg/kg) | AUC normalised ([12]; iv, 10 mg/kg): 0.81 (umol.h/L)/(mg/kg) | CL (Cytochrome P450 4F2): 7.9 µL·min/nmol

COCCCOc1cc(C[C@@H](C[C@H](N)[C@@H](O)C[C@H](C(=O)NCC(C)(C)C(N)=O)C(C)C)C(C)C)ccc1OC.COCCCOc1cc(C[C@@H](C[C@H](N)[C@@H](O)C[C@H](C(=O)NCC(C)(C)C(N)=O)C(C)C)C(C)C)ccc1OC.O=C(O)/C=C/C(=O)O [ALISKIREN FUMARATE]
AUC at 24 h [13]: 33900 ng·h/mL | Cmax [14]: 312 ng/mL | AUC normalised [15]: 3.65 ((ng/mL).hours)/(mg/kg/day) | BUN_CHANGE_BY [16]: 5% | Tmax [17]: 2 h | half-life [18]: 8.19 h | Cmax [19]: 1450 nM | Cmax normalised [20]: 0.128 (ng/mL)/(mg/kg/day) | F [21]: 1.5% | AUC(0-t) at 24 h [22]: 1700 ng·h/mL
